Assay results as given in PubChem BioAssay (NCI).
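GI50: concentration for 50% inhibition of growth. TGI denotes the concentration required for complete inhibition of growth.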

Key:
Experiment in all cases: NCI-60 cell line screen, 384-well format
SF-295 CNS = tested on: SF-295 CNS
PC-3 prostate = tested on: PC-3 prostate
NCI-H522 lung = tested on: NCI-H522 lung
HCT-15 colon = tested on: HCT-15 colon
RPMI-8226 leukemia = tested on: RPMI-8226 leukemia
SW-620 colon = tested on: SW-620 colon
SK-OV-3 ovarian = tested on: SK-OV-3 ovarian
ACHN renal = tested on: ACHN renal
MCF7 breast = tested on: MCF7 breast
OVCAR-8 ovarian = tested on: OVCAR-8 ovarian
NCI-H460 NSCLC = tested on: NCI-H460 NSCLC
OVCAR-4 ovarian = tested on: OVCAR-4 ovarian
BT-549 breast = tested on: BT-549 breast
HL-60(TB) leukemia = tested on: HL-60(TB) leukemia
OVCAR-5 ovarian = tested on: OVCAR-5 ovarian
K-562 leukemia = tested on: K-562 leukemia
TK-10 renal = tested on: TK-10 renal
EKVX NSCLC = tested on: EKVX NSCLC
KM12 colon = tested on: KM12 colon
NCI-H226 lung = tested on: NCI-H226 lung
LOX IMVI melanoma = tested on: LOX IMVI melanoma
DU-145 prostate = tested on: DU-145 prostate
HCC-2998 colon = tested on: HCC-2998 colon
A549 NSCLC = tested on: A549 NSCLC
CAKI-1 renal = tested on: CAKI-1 renal
CCRF-CEM leukemia = tested on: CCRF-CEM leukemia
HS 578T breast = tested on: HS 578T breast
HOP-62 NSCLC = tested on: HOP-62 NSCLC
SK-MEL-5 melanoma = tested on: SK-MEL-5 melanoma
MDA-MB-435 melanoma = tested on: MDA-MB-435 melanoma
HOP-92 NSCLC = tested on: HOP-92 NSCLC
MDA-MB-231 breast = tested on: MDA-MB-231 breast
OVCAR-3 ovarian = tested on: OVCAR-3 ovarian
HCT-116 colon = tested on: HCT-116 colon
786-0 renal = tested on: 786-0 renal
MOLT-4 leukemia = tested on: MOLT-4 leukemia
NCI/ADR-RES ovarian = tested on: NCI/ADR-RES ovarian
NCI-H23 lung = tested on: NCI-H23 lung
IGROV1 ovarian = tested on: IGROV1 ovarian
MDA-MB-468 breast = tested on: MDA-MB-468 breast
SN12C renal = tested on: SN12C renal
SK-MEL-28 melanoma = tested on: SK-MEL-28 melanoma
M14 melanoma = tested on: M14 melanoma
SNB-19 CNS = tested on: SNB-19 CNS
MALME-3M melanoma = tested on: MALME-3M melanoma
U251 glioblastoma = tested on: U251 glioblastoma
NCI-H322M lung = tested on: NCI-H322M lung
T-47D breast = tested on: T-47D breast
HT29 colon = tested on: HT29 colon
SNB-75 CNS = tested on: SNB-75 CNS
SF-539 CNS = tested on: SF-539 CNS
SF-268 CNS = tested on: SF-268 CNS
UACC-62 melanoma = tested on: UACC-62 melanoma
UACC-257 melanoma = tested on: UACC-257 melanoma
COLO 205 colon = tested on: COLO 205 colon
UO-31 renal = tested on: UO-31 renal
RXF 393 renal = tested on: RXF 393 renal
A498 renal = tested on: A498 renal

`C[C@@H]1CN(Cc2ccc(F)cc2)[C@@H](C)CN1C(=O)c1cc2c(C(=O)C(=O)N(C)C)cn(C)c2cc1Cl` gave a GI50 (SF-295 CNS) of 16.4 µM, a TGI (SF-295 CNS) of 31.9 µM and a GI50 (PC-3 prostate) of 18.6 µM. It also gave a TGI (PC-3 prostate) of 35 µM, a GI50 (NCI-H522 lung) of 20.5 µM and a TGI (NCI-H522 lung) of 38.1 µM. The GI50 (HCT-15 colon) was 19.8 µM, the TGI (HCT-15 colon) was 39.3 µM and the GI50 (RPMI-8226 leukemia) was 12.2 µM. For the same compound, the TGI (RPMI-8226 leukemia) was 24.7 µM, the GI50 (SW-620 colon) was 18 µM and the TGI (SW-620 colon) was 40.9 µM. It also gave a GI50 (SK-OV-3 ovarian) of 19.6 µM, a TGI (SK-OV-3 ovarian) of 42.7 µM and a GI50 (ACHN renal) of 14.4 µM. The TGI (ACHN renal) was 43 µM, the GI50 (MCF7 breast) was 10.8 µM and the TGI (MCF7 breast) was 24.1 µM. It also gave a GI50 (OVCAR-8 ovarian) of 17.9 µM, a TGI (OVCAR-8 ovarian) of 38.9 µM and a GI50 (NCI-H460 NSCLC) of 12.7 µM. For the same compound, the TGI (NCI-H460 NSCLC) was 26.9 µM, the GI50 (OVCAR-4 ovarian) was 22.4 µM and the TGI (OVCAR-4 ovarian) was 46.9 µM. It also gave a GI50 (BT-549 breast) of 17.7 µM, a TGI (BT-549 breast) of 31.8 µM and a GI50 (HL-60(TB) leukemia) of 20.7 µM. It also gave a TGI (HL-60(TB) leukemia) of 35.1 µM, a GI50 (OVCAR-5 ovarian) of 19.9 µM and a TGI (OVCAR-5 ovarian) of 52.1 µM. The GI50 (K-562 leukemia) was 7.01 µM, the TGI (K-562 leukemia) was 20.8 µM and the GI50 (TK-10 renal) was 23.8 µM. For the same compound, the TGI (TK-10 renal) was 52.3 µM, the GI50 (EKVX NSCLC) was 15.3 µM and the TGI (EKVX NSCLC) was 35 µM. For the same compound, the GI50 (KM12 colon) was 14.8 µM, the TGI (KM12 colon) was 29.7 µM and the GI50 (NCI-H226 lung) was 10.3 µM. It also gave a TGI (NCI-H226 lung) of 23.9 µM, a GI50 (LOX IMVI melanoma) of 14.8 µM and a TGI (LOX IMVI melanoma) of 28.5 µM. For the same compound, the GI50 (DU-145 prostate) was 19.1 µM, the TGI (DU-145 prostate) was 37.8 µM and the GI50 (HCC-2998 colon) was 17.1 µM. For the same compound, the TGI (HCC-2998 colon) was 31.5 µM, the GI50 (A549 NSCLC) was 13.8 µM and the TGI (A549 NSCLC) was 35.5 µM. The GI50 (CAKI-1 renal) was 15.4 µM, the TGI (CAKI-1 renal) was 41 µM and the GI50 (CCRF-CEM leukemia) was 15.3 µM. It also gave a TGI (CCRF-CEM leukemia) of 28.8 µM, a GI50 (HS 578T breast) of 12.7 µM and a TGI (HS 578T breast) of 26.5 µM. For the same compound, the GI50 (HOP-62 NSCLC) was 10.8 µM, the TGI (HOP-62 NSCLC) was 24.1 µM and the GI50 (SK-MEL-5 melanoma) was 7.47 µM. It also gave a TGI (SK-MEL-5 melanoma) of 20.5 µM, a GI50 (MDA-MB-435 melanoma) of 15.5 µM and a TGI (MDA-MB-435 melanoma) of 31.1 µM. The GI50 (HOP-92 NSCLC) was 17.1 µM, the TGI (HOP-92 NSCLC) was 31.2 µM and the GI50 (MDA-MB-231 breast) was 23.2 µM. The TGI (MDA-MB-231 breast) was 61.9 µM, the GI50 (OVCAR-3 ovarian) was 17.8 µM and the TGI (OVCAR-3 ovarian) was 32.1 µM. It also gave a GI50 (HCT-116 colon) of 16.1 µM, a TGI (HCT-116 colon) of 30.5 µM and a GI50 ([…]-0 renal) of 13.6 µM. The TGI (786-0 renal) was 28.5 µM, the GI50 (MOLT-4 leukemia) was 12.9 µM and the TGI (MOLT-4 leukemia) was 25.7 µM. It also gave a GI50 (NCI/ADR-RES ovarian) of 18.3 µM, a TGI (NCI/ADR-RES ovarian) of 41.6 µM and a GI50 (NCI-H23 lung) of 20.1 µM. The TGI (NCI-H23 lung) was 44.5 µM, the GI50 (IGROV1 ovarian) was 14.2 µM and the TGI (IGROV1 ovarian) was 28.3 µM. For the same compound, the GI50 (MDA-MB-468 breast) was 2.8 µM, the TGI (MDA-MB-468 breast) was 17.4 µM and the GI50 (SN12C renal) was 15.8 µM. The TGI (SN12C renal) was 31.7 µM, the GI50 (SK-MEL-28 melanoma) was 16.1 µM and the TGI (SK-MEL-28 melanoma) was 31.6 µM. It also gave a GI50 (M14 melanoma) of 14.1 µM, a TGI (M14 melanoma) of 28.8 µM and a GI50 (SNB-19 CNS) of 24.1 µM. For the same compound, the TGI (SNB-19 CNS) was 58.1 µM, the GI50 (MALME-3M melanoma) was 18.3 µM and the TGI (MALME-3M melanoma) was 32.6 µM. It also gave a GI50 (U251 glioblastoma) of 16.4 µM, a TGI (U251 glioblastoma) of 30.7 µM and a GI50 (NCI-H322M lung) of 17.5 µM. For the same compound, the TGI (NCI-H322M lung) was 35.3 µM, the GI50 (T-47D breast) was 1.99 µM and the TGI (T-47D breast) was 17.2 µM. For the same compound, the GI50 (HT29 colon) was 12.7 µM, the TGI (HT29 colon) was 27 µM and the GI50 (SNB-75 CNS) was 15.7 µM. It also gave a TGI (SNB-75 CNS) of 33.8 µM, a GI50 (SF-539 CNS) of 17.2 µM and a TGI (SF-539 CNS) of 31.3 µM. It also gave a GI50 (SF-268 CNS) of 2.33 µM, a TGI (SF-268 CNS) of 14.7 µM and a GI50 (UACC-62 melanoma) of 8.17 µM. It also gave a TGI (UACC-62 melanoma) of 20.9 µM, a GI50 (UACC-257 melanoma) of 19.7 µM and a TGI (UACC-257 melanoma) of 34.1 µM. It also gave a GI50 (COLO 205 colon) of 10.9 µM, a TGI (COLO 205 colon) of 23.7 µM and a GI50 (UO-31 renal) of 15.1 µM. The TGI (UO-31 renal) was 29.6 µM, the GI50 (RXF 393 renal) was 14.9 µM and the TGI (RXF 393 renal) was 28.9 µM. It also gave a GI50 (A498 renal) of 13.6 µM and a TGI (A498 renal) of 29.2 µM.
